The record followed here is ChEMBL document CHEMBL5126592, “Design, synthesis and activity against drug-resistant bacteria evaluation of C-20, C-23 modified 5-O-mycaminosyltylonolide derivatives” (Eur J Med Chem, 2022).

Values after ≈ are worked out from the molar mass of the structure shown. Active and inactive are the calls of the source. Where only a bound is given, the exact number is not on record here.

Common to all, as to format: functional
In test [1] the test system is Staphylococcus aureus. Kind of test: Antibacterial activity against Staphylococcus aureus incubated for 16 to 20 hrs by broth microdilution method. The settings on record: time 16-20 hrs. On the technique in general: Broth dilution looks for growth in wells or tubes with falling amounts of substance.
The test system of test [2] is Staphylococcus aureus. Kind of test: Antibacterial activity against Staphylococcus aureus ATCC 25923 incubated for 16 to 20 hrs by broth microdilution method. The note with it: time 16-20 hrs.
Test [3] relates to Escherichia coli. The experiment in a line: Antibacterial activity against Escherichia coli ATCC 25922 incubated for 16 to 20 hrs by broth microdilution method. The settings on record: time 16-20 hrs.
The subject of test [4] is Cronobacter sakazakii. The experiment in a line: Antibacterial activity against Cronobacter sakazakii ATCC 29544 incubated for 16 to 20 hrs by broth microdilution method. The settings on record: time 16-20 hrs.
Test [5] concerns Klebsiella pneumoniae. The experiment in a line: Antibacterial activity against Klebsiella pneumoniae ATCC 13883 incubated for 16 to 20 hrs by broth microdilution method. The note with it: time 16-20 hrs.
Test [6] concerns Enterococcus faecium. The experiment in a line: Antibacterial activity against Enterococcus faecium incubated for 16 to 20 hrs by broth microdilution method. The note with it: time 16-20 hrs.
Test [7] concerns Streptococcus dysgalactiae. Kind of test: Antibacterial activity against Streptococcus dysgalactiae incubated for 16 to 20 hrs by broth microdilution method. The note with it: time 16-20 hrs.
Test [8] relates to Staphylococcus chromogenes. Kind of test: Antibacterial activity against Staphylococcus chromogenes incubated for 16 to 20 hrs by broth microdilution method. The settings on record: time 16-20 hrs.
In test [9] the test system is Escherichia coli. The experiment in a line: Antibacterial activity against Escherichia coli incubated for 16 to 20 hrs by broth microdilution method. The settings on record: time 16-20 hrs.
Test [10] concerns Pseudomonas aeruginosa. The experiment in a line: Antibacterial activity against Pseudomonas aeruginosa LTP-3 incubated for 16 to 20 hrs by broth microdilution method. The note with it: time 16-20 hrs.
Test [11] deals with Escherichia coli. The experiment in a line: Induction of drug resistance in Escherichia coli ATCC 25922 assessed as increase in MIC measured after 30 passages by broth microdilution method.
Test [12] relates to Staphylococcus aureus. Kind of test: Antibacterial activity against Staphylococcus aureus ATCC 29213 incubated for 16 to 20 hrs using 10^6 CFU/ml bacterial inoculum by broth microdilution method. The settings on record: time 16-20 hrs.
Test [13] relates to Staphylococcus aureus. Kind of test: Antibacterial activity against Staphylococcus aureus ATCC 29213 incubated for 16 to 20 hrs using 10^5 CFU/ml bacterial inoculum by broth microdilution method. The note with it: time 16-20 hrs.
Test [14] deals with Staphylococcus aureus. Kind of test: Antibacterial activity against Staphylococcus aureus ATCC 29213 incubated for 16 to 20 hrs using 10^4 CFU/ml bacterial inoculum by broth microdilution method. The note with it: time 16-20 hrs.
In test [15] the test system is Staphylococcus aureus. The experiment in a line: Antibacterial activity against Staphylococcus aureus ATCC 29213 incubated for 16 to 20 hrs using 10^3 CFU/ml bacterial inoculum by broth microdilution method. The settings on record: time 16-20 hrs.
In test [16] the test system is Staphylococcus aureus. The experiment in a line: Antibacterial activity against Staphylococcus aureus ATCC 29213 at pH 8.6 incubated for 16 to 20 hrs in presence of 50% foetal bovine serum by broth microdilution method. The settings on record: time 16-20 hrs.
In test [17] the test system is Staphylococcus aureus. Kind of test: Antibacterial activity against Staphylococcus aureus ATCC 29213 at pH 8.6 incubated for 16 to 20 hrs in presence of 5% foetal bovine serum by broth microdilution method. The settings on record: time 16-20 hrs.
Test [18] has as its system Staphylococcus aureus. Kind of test: Antibacterial activity against Staphylococcus aureus ATCC 29213 at pH 8.6 incubated for 16 to 20 hrs in presence of 10% foetal bovine serum by broth microdilution method. The note with it: time 16-20 hrs.
The test system of test [19] is Staphylococcus aureus. Kind of test: Antibacterial activity against Staphylococcus aureus ATCC 29213 at pH 8.6 incubated for 16 to 20 hrs in presence of 25% foetal bovine serum by broth microdilution method. The note with it: time 16-20 hrs.
Test [20] concerns Escherichia coli. The experiment in a line: Antibacterial activity against Escherichia coli ATCC 25922 incubated for 16 to 20 hrs using 10^6 CFU/ml bacterial inoculum by broth microdilution method. The note with it: time 16-20 hrs.
For test [21], the system named is Escherichia coli. Kind of test: Antibacterial activity against Escherichia coli ATCC 25922 incubated for 16 to 20 hrs using 10^7 CFU/ml bacterial inoculum by broth microdilution method. The settings on record: time 16-20 hrs.
Test [22] relates to Escherichia coli. Kind of test: Antibacterial activity against Escherichia coli ATCC 25922 incubated for 16 to 20 hrs using 10^4 CFU/ml bacterial inoculum by broth microdilution method. The note with it: time 16-20 hrs.
In test [23] the test system is Escherichia coli. The experiment in a line: Antibacterial activity against Escherichia coli ATCC 25922 incubated for 16 to 20 hrs using 10^5 CFU/ml bacterial inoculum by broth microdilution method. The note with it: time 16-20 hrs.
For test [24], the system named is Escherichia coli. Kind of test: Antibacterial activity against Escherichia coli ATCC 25922 incubated for 16 to 20 hrs using 10^3 CFU/ml bacterial inoculum by broth microdilution method. The note with it: time 16-20 hrs.
For test [25], the system named is Escherichia coli. The experiment in a line: Antibacterial activity against Escherichia coli ATCC 25922 incubated for 16 to 20 hrs in absence of foetal bovine serum by broth microdilution method. The settings on record: time 16-20 hrs.
The test system of test [26] is Escherichia coli. The experiment in a line: Antibacterial activity against Escherichia coli ATCC 25922 incubated for 16 to 20 hrs in presence of 5% foetal bovine serum by broth microdilution method. The settings on record: time 16-20 hrs.
For test [27], the system named is Escherichia coli. Kind of test: Antibacterial activity against Escherichia coli ATCC 25922 incubated for 16 to 20 hrs in presence of 10% foetal bovine serum by broth microdilution method. The settings on record: time 16-20 hrs.
Test [28] relates to Escherichia coli. The experiment in a line: Antibacterial activity against Escherichia coli ATCC 25922 incubated for 16 to 20 hrs in presence of 25% foetal bovine serum by broth microdilution method. The settings on record: time 16-20 hrs.
The subject of test [29] is Escherichia coli. The experiment in a line: Antibacterial activity against Escherichia coli ATCC 25922 incubated for 16 to 20 hrs in presence of 50% foetal bovine serum by broth microdilution method. The note with it: time 16-20 hrs.

Turning to `CC[C@H]1OC(=O)C[C@@H](O)[C@H](C)[C@@H](O[C@@H]2O[C@H](C)[C@@H](O)[C@H](N(C)C)[C@H]2O)[C@@H](CCN(C)Cc2cn(-c3cnc4ccccc4c3)nn2)C[C@@H](C)C(=O)/C=C/C(C)=C/[C@@H]1CN(CC)CC`, the MIC (as a rule, the smallest concentration in the dilution series that meets the test's criterion for growth inhibition) in [1] is 0.5 µg/mL (≈ 0.571 µM); in [2] it was 0.125 µg/mL (≈ 0.143 µM); in test [3], 2 µg/mL (≈ 2.28 µM); in test [4], 4 µg/mL (≈ 4.57 µM); in [5], 1 µg/mL (≈ 1.14 µM); in test [6] it was 2 µg/mL (≈ 2.28 µM). The MIC in test [7] was 0.5 µg/mL (≈ 0.571 µM); in test [8] it was 1 µg/mL (≈ 1.14 µM); in [9], 4 µg/mL (≈ 4.57 µM); in test [10], 2 µg/mL (≈ 2.28 µM).
For `CC[C@H]1OC(=O)C[C@@H](O)[C@H](C)[C@@H](O[C@@H]2O[C@H](C)[C@@H](O)[C@H](N(C)C)[C@H]2O)[C@@H](CCN(C)Cc2cn(-c3cnc4ccccc4c3)nn2)C[C@@H](C)C(=O)/C=C/C(C)=C/[C@@H]1CO`, the minimal inhibitory concentration (MIC) in test [1] was 0.25 µg/mL (≈ 0.304 µM); in test [2], 1 µg/mL (≈ 1.22 µM); in test [3] it was 4 µg/mL (≈ 4.87 µM); in [4], 8 µg/mL (≈ 9.74 µM); in test [5], 2 µg/mL (≈ 2.44 µM); in [6], 2 µg/mL (≈ 2.44 µM). The MIC in test [7] turned out to be 0.5 µg/mL (≈ 0.609 µM); in test [8], 0.125 µg/mL (≈ 0.152 µM); in test [9] it was 4 µg/mL (≈ 4.87 µM); in [10], 4 µg/mL (≈ 4.87 µM).
As for `CC(=O)NC[C@H]1CN(c2ccc(N3CCOCC3)c(F)c2)C(=O)O1` [LINEZOLID], the outcome in [11] was Active. In addition, the MIC in test [12] was 1 µg/mL (≈ 2.96 µM); in [13] it was 0.5 µg/mL (≈ 1.48 µM); in [14], 0.25 µg/mL (≈ 0.741 µM); in [15], 0.25 µg/mL (≈ 0.741 µM); in [16], more than 32 µg/mL; in test [1] it was 1 µg/mL (≈ 2.96 µM). The MIC in test [3] was more than 32 µg/mL; in test [4], more than 32 µg/mL; in test [5] it was more than 32 µg/mL; in test [6], 2 µg/mL (≈ 5.93 µM); in [7] it was 2 µg/mL (≈ 5.93 µM); in [8], 1 µg/mL (≈ 2.96 µM). Further, the MIC in test [9] was 32 µg/mL (≈ 94.9 µM); in test [10] it was 32 µg/mL (≈ 94.9 µM); in test [17], more than 32 µg/mL; in test [18], more than 32 µg/mL; in test [19] it was more than 32 µg/mL.
Consider `C[C@@H](O)[C@H]1C(=O)N2C(C(=O)O)=C(S[C@@H]3CN[C@H](C(=O)N(C)C)C3)[C@H](C)[C@H]12` [MEROPENEM], for which the MIC in test [20], in [21], in test [22], in test [23], in [24] and in [25] was less than 0.0625 µg/mL each time. Moreover, the MIC was less than 0.0625 µg/mL in [1]; 0.0625 µg/mL (≈ 0.163 µM) in test [2]; 0.125 µg/mL (≈ 0.326 µM) in [3]; 0.0625 µg/mL (≈ 0.163 µM) in test [4]; less than 0.0625 µg/mL in [5]; 8 µg/mL (≈ 20.9 µM) in test [6]. In addition, the MIC is 8 µg/mL (≈ 20.9 µM) in test [7]; 0.0625 µg/mL (≈ 0.163 µM) in [8]; less than 0.0625 µg/mL in [9]; less than 0.0625 µg/mL in test [10]; less than 0.0625 µg/mL in [26]; less than 0.0625 µg/mL in test [27]. Further, the MIC in test [28] and in test [29] was less than 0.0625 µg/mL each time.
Regarding `CC[C@H]1OC(=O)C[C@@H](O)[C@H](C)[C@@H](O[C@@H]2O[C@H](C)[C@@H](O)[C@H](N(C)C)[C@H]2O)[C@@H](CCN(C)Cc2cn(-c3cnc4ccccc4c3)nn2)C[C@@H](C)C(=O)/C=C/C(C)=C/[C@@H]1CN1CCCCC1`, the MIC in [1] is 0.25 µg/mL (≈ 0.281 µM); in [2], 0.5 µg/mL (≈ 0.563 µM); in [3] it was 2 µg/mL (≈ 2.25 µM); in test [4], 8 µg/mL (≈ 9.01 µM); in test [5], 2 µg/mL (≈ 2.25 µM); in [6], 1 µg/mL (≈ 1.13 µM). The MIC in test [7] is 0.5 µg/mL (≈ 0.563 µM); in [8] it was 0.5 µg/mL (≈ 0.563 µM); in [9], 2 µg/mL (≈ 2.25 µM); in [10], 1 µg/mL (≈ 1.13 µM).
